According to US10392368B2, “Pyrazolo and triazolo bicyclic compounds as JAK kinase inhibitors” (THERAVANCE BIOPHARMA R&D IP, LLC, priority 2017, dated 2019):

Assays:
JAK3 = target: T1, JAK3 (Homo sapiens, UniProt P52333); assay: Biochemical JAK3 kinase assay (LanthaScreen); design: GST; purchased Life Technologies; details: for JAK3 (pKi)-JAK1 (pKi): selectivity JAK3 over JAK1, difference of pKi; for Ki: read-out: JAK 3 (pKi) (converted)
T1 sequence (P52333 1-1124): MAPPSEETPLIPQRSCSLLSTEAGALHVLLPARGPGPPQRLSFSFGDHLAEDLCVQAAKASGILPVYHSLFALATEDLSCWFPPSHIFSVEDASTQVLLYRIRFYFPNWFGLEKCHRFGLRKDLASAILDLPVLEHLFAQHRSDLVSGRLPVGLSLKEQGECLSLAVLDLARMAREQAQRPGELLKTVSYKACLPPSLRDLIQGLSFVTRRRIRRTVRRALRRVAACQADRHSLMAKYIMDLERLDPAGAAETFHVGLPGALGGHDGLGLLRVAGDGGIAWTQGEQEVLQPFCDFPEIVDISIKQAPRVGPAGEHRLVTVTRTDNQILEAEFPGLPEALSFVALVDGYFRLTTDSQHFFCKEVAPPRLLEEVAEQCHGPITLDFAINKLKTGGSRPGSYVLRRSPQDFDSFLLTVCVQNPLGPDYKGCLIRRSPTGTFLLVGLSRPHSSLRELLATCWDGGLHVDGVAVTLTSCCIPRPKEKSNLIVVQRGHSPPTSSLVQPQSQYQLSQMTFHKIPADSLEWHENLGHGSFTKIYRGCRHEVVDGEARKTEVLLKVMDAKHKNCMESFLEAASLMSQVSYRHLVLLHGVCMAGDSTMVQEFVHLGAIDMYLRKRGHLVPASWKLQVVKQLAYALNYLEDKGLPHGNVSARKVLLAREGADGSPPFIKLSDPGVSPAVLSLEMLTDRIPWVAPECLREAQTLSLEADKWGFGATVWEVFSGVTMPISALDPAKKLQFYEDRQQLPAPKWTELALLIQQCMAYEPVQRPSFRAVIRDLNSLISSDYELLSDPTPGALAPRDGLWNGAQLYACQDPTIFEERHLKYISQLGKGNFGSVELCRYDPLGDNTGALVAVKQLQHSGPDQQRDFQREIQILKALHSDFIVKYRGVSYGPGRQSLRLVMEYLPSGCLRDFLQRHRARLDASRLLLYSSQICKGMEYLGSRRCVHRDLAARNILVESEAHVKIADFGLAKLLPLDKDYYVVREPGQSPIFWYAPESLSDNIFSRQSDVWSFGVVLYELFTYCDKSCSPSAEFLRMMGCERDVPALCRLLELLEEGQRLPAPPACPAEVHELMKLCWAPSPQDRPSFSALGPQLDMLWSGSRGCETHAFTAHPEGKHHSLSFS
In short: (§1)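 TR-FRET read-out: terbium anti-pSTAT1 (pTyr701) antibody, 2 nM, with 10 mM EDTA quench, emission ratio 520/495 nm. GST-JAK phosphorylates GFP-STAT1 peptide for 1 h at ambient temperature after 1 h compound pre-incubation. pIC50 from dose-response converted to pKi by Cheng-Prusoff.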

JAK2 = target: T2, JAK2 (Homo sapiens, UniProt O60674); assay: Biochemical JAK2 kinase assay (LanthaScreen); details: for Ki: read-out: JAK 2 (pKi) (converted)
T2 construct: GST; purchased Life Technologies
In short: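 GST-tagged recombinant JAK2 pre-incubated 1 h at ambient temperature with compound and GFP-STAT1 peptide in HEPES pH 7.5/MgCl2 buffer, then ATP added for a 1 h reaction with 1% DMSO. TR-FRET read after EDTA and Tb-anti-pSTAT1 (pTyr701) addition; IC50 from 4-parameter fit, converted to pKi by Cheng-Prusoff.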

JAK1 = target: T3, JAK1 (Homo sapiens, UniProt P23458); assay: Biochemical JAK1 kinase assay (LanthaScreen); details: for Ki: read-out: JAK 1 (pKi) (converted)
T3 construct: GST; purchased Life Technologies
In short: as §1

Tyk2 = target: T4, Tyk2 (Homo sapiens, UniProt P29597); assay: Biochemical Tyk2 kinase assay (LanthaScreen); details: for Ki: read-out: Tyk 2 (pKi) (converted)
T4 construct: GST; purchased Life Technologies
In short: as §1

[1] = test system: IL-2 stimulated pSTAT5 in Tall-1 T cells; assay: Cellular JAK3 potency assay: inhibition of IL-2 stimulated pSTAT5 in Tall-1 T cells; type: cell-based, human; details: for Tall-1 (pIC50): IL-2 stimulated pSTAT5, Tall-1 T cells; for IC50: Homo sapiens, TALL-1, IL-2 stimulated pSTAT5, Tall-1 T cells, read-out: Tall-1 (pIC50) (converted)
In short: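 Tall-1 human T cells (45,000/well) in phenol red-free DMEM with 10% FBS were preincubated with compound 1 h at 37 °C, then stimulated with IL-2 (final 300 ng/ml) for 30 min. Lysate pSTAT5 read by AlphaLisa; IC50 from inhibition curves, reported as pIC50 (mean±SD).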

T2 sequence (O60674 whole entry): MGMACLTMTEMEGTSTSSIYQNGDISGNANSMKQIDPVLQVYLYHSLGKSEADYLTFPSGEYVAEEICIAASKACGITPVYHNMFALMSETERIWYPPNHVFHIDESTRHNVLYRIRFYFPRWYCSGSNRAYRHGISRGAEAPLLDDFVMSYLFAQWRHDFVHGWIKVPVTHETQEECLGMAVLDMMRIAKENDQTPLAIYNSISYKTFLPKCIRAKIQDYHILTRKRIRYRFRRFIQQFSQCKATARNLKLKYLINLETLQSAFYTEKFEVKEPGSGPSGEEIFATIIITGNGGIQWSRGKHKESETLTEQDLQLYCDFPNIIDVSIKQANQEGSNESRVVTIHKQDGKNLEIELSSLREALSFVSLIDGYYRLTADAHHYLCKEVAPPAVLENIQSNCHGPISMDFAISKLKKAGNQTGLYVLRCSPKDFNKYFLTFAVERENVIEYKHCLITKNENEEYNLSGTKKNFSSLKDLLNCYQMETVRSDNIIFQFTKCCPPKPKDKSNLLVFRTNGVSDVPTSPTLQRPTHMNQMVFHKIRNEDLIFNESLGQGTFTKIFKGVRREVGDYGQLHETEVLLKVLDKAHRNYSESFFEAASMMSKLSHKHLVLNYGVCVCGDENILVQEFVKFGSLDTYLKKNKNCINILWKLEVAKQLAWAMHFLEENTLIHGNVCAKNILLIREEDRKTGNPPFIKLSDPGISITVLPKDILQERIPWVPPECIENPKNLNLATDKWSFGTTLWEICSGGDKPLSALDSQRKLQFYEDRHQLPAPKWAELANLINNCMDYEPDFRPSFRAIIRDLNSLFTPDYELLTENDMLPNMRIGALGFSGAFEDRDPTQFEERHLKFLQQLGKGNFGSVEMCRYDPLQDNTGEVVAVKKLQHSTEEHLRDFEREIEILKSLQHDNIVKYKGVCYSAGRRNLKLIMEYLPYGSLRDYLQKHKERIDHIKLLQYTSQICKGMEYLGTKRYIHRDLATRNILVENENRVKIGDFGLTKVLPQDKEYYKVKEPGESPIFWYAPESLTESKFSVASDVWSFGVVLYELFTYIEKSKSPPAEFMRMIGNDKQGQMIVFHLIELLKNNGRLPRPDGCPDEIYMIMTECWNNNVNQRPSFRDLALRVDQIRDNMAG
T3 sequence (P23458 whole entry): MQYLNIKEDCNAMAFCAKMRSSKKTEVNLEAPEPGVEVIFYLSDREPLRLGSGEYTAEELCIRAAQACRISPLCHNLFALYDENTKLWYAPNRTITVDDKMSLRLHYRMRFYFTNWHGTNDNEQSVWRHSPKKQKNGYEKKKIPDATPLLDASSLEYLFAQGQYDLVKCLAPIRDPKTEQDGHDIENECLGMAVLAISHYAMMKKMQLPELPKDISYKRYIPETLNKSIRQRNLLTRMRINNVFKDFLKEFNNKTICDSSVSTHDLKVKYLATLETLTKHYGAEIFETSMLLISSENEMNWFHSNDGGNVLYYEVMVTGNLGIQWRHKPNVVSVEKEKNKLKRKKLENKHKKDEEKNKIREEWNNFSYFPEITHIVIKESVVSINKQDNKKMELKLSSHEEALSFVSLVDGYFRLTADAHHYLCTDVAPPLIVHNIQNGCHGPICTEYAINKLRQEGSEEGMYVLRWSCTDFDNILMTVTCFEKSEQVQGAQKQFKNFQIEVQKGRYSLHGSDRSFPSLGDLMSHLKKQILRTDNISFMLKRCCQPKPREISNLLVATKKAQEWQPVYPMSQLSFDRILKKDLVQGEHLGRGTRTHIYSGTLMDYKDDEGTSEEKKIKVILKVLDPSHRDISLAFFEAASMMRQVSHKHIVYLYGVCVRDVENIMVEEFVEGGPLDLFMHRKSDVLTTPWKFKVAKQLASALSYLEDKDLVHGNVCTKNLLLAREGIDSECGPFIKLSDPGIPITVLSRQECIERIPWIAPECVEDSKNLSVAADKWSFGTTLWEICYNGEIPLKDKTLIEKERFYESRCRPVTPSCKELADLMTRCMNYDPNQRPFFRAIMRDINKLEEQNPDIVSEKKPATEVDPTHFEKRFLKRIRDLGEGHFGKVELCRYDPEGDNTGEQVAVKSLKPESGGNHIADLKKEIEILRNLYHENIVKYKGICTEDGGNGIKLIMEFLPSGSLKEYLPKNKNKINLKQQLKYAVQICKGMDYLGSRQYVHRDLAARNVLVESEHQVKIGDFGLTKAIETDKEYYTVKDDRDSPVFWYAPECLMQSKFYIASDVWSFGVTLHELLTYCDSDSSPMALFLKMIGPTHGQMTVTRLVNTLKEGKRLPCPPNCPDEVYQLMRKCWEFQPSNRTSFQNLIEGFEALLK
T4 sequence (P29597 whole entry): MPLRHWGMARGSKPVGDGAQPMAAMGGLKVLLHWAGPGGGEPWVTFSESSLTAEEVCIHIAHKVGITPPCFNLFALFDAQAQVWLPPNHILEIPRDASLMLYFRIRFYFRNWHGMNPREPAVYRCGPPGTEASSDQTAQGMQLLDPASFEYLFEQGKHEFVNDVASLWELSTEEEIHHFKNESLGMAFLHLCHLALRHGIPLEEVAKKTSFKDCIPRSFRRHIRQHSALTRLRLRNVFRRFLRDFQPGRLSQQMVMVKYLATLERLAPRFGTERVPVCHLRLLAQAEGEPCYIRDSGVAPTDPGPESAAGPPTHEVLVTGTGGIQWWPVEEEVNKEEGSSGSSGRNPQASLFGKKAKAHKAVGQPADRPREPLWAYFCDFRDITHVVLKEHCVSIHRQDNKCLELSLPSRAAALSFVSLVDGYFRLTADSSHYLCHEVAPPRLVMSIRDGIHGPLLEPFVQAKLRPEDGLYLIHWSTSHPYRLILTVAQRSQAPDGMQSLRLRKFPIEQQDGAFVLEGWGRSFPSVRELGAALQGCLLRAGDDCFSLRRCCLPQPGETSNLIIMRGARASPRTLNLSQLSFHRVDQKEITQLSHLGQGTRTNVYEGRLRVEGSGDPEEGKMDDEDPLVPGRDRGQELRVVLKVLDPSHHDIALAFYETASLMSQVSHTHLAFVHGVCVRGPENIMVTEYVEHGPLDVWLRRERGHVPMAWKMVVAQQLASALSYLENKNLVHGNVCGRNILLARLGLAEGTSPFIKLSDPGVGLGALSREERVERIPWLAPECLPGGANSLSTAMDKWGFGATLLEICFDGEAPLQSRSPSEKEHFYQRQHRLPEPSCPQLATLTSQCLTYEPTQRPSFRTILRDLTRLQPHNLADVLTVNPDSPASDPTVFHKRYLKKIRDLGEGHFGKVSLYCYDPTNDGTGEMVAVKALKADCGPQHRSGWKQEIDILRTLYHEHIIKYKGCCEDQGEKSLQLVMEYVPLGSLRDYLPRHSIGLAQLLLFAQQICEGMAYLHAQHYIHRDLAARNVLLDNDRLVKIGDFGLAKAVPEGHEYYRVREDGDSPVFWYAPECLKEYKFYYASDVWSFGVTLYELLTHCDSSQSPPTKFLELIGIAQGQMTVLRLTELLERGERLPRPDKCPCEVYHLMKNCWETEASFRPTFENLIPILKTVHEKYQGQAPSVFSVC

| SMILES | JAK 3 (pKi) (JAK3) | JAK3 (pKi)-JAK1 (pKi) (JAK3) | JAK 2 (pKi) (JAK2) | JAK 1 (pKi) (JAK1) | Tyk 2 (pKi) (Tyk2) | Tall-1 (pIC50) [1] | Ki (JAK3) [nM] | Ki (JAK2) [nM] | Ki (JAK1) [nM] | Ki (Tyk2) [nM] | IC50 [1] [nM] |
| --- | --- | --- | --- | --- | --- | --- | --- | --- | --- | --- | --- |
| C=CC(=O)N1CC(C)(Oc2cc(-c3ccc(O)c(Cl)c3)cc3[nH]ncc23)C1 [Compound 5-23] | B (a pKi value between 9 and 10 (Ki between 1 nM and 0.1 nM)) | A (a value of 3 or above) | E (a pKi value of 7 or below (Ki of 100 nM or above)) | E (a pKi value of 7 or below (Ki of 100 nM or above)) | E (a pKi value of 7 or below (Ki of 100 nM or above)) | B (a pIC50 value between 6.7 (included) and 7.5 (IC50 between 200 nM and 32 nM)) |  |  |  |  |  |
| C=CC(=O)N1CCC(Oc2cc(-c3ccc(O)cc3)cc3[nH]ncc23)CC1 [Compound 6-2] |  | B (a value of 2.3 to 3) |  |  |  |  | < 0.1 | 10 to 100 | 10 to 100 | > 100 | < 31.6 |
| C=CC(=O)N1CCC(C)(Oc2cc(-c3ccc(O)cc3)cc3[nH]ncc23)CC1 [Compound 6-3] |  | A (a value of 3 or above) |  |  |  |  | 0.1 to 1 | 10 to 100 | > 100 | > 100 | < 31.6 |
| CN(C)C/C=C/C(=O)N1CCC(C)(Oc2cc(-c3ccc(O)c(Cl)c3)cc3[nH]ncc23)CC1 [Compound 6-4] |  | A (a value of 3 or above) |  |  |  |  | < 0.1 | 10 to 100 | > 100 | > 100 | 31.6 to 200 |
| CN(C)C/C=C/C(=O)N1CCC(C)(Oc2cc(-c3ccc(O)c(F)c3)cc3[nH]ncc23)CC1 [Compound 6-6] |  | A (a value of 3 or above) |  |  |  |  | 0.1 to 1 | 10 to 100 | > 100 | > 100 | < 31.6 |
| C=CC(=O)N1CCC(Oc2cc(-c3ccc(O)c(Cl)c3)cc3[nH]ncc23)CC1 [Compound 6-13] | B (a pKi value between 9 and 10 (Ki between 1 nM and 0.1 nM)) | B (a value of 2.3 to 3) | D (a pKi value between 7 and 8 (Ki between 100 nM and 10 nM)) | E (a pKi value of 7 or below (Ki of 100 nM or above)) | E (a pKi value of 7 or below (Ki of 100 nM or above)) | A (a pIC50 value≥7.5 (IC50≤32 nM)) |  |  |  |  |  |
| C=CC(=O)N1CCC(Oc2nc(-c3ccc(O)cc3)cc3[nH]ncc23)CC1 [Compound 6-15] |  | A (a value of 3 or above) |  |  |  |  | 0.1 to 1 | 10 to 100 | > 100 | > 100 | 31.6 to 200 |
| C=CC(=O)N1CCC(Oc2nc(-c3ccc(O)c(F)c3)cc3[nH]ncc23)CC1 [Compound 6-16] |  | A (a value of 3 or above) |  |  |  |  | 0.1 to 1 | 10 to 100 | > 100 | > 100 | 31.6 to 200 |
| C=CC(=O)N1CCC(Oc2cc(-c3ccc(O)c(Cl)c3)nc3[nH]ncc23)CC1 [Compound 6-17] |  | A (a value of 3 or above) |  |  |  |  | < 0.1 | > 100 | > 100 | > 100 | 31.6 to 200 |
